{"source": "patent US7622266B2", "about": "“Identification of a synthetic ligand for retinoic acid receptor beta” (Institut Pasteur, priority 1987, dated 2009)", "key": {"[1]": {"target": "T1, in vitro translated hap polypeptide (Homo sapiens, UniProt P10826)", "T1 construct": "made in house; host or cells: rabbit reticulocyte lysate (in vitro translation of T7 transcripts of pCOD20)", "T1 sequence (P10826 1-448 isoform P10826-2)": "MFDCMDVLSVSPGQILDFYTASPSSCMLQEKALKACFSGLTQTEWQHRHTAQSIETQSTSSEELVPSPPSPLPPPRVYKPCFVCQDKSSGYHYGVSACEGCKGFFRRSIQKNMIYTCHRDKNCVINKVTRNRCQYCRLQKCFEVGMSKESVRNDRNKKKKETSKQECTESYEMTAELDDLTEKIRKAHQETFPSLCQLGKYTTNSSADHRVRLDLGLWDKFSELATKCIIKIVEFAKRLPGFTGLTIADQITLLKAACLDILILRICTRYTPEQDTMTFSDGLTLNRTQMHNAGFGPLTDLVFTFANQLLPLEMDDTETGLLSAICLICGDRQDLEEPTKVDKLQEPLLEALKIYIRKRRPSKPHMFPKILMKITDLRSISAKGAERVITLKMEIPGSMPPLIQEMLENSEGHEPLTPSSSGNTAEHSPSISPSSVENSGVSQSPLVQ", "experiment": "Hormone-binding assay with in vitro translated hap polypeptide", "conditions": "reticulocyte lysate; for specific binding of (125I)-labelled thyroid hormone to in vitro translated hap polypeptide: 0° C., filtration; for binding of (3H)-labelled ligand to in vitro translated hap polypeptide: overnight 0° C., Dextran coated charcoal", "excerpt": "The ability to express functional receptors in vitro from cloned c-erbA/steroid receptor genes led to the use of an in vitro translation assay to identify a putative hap ligand.\nThe coding region of hap was cloned into pTZ18 plasmid vector to allow in vitro transcription with the T7 RNA polymerase and subsequent translation in reticulocyte lysates. More particularly, ^35S-methionine-labelled products synthesized using T7 polymerase-catalysed RNA transcripts were separated on a 12% SDS-polyacrylamide gel, which was fluorographed. (DMSO-PPO). The lanes in FIG. 5 are as follows:\npCOD20 and pCOD14 were linearized with HindIII. Capped mRNA was generated using 5 ug of DNA, 5 uM rNTP, 25 mM DTT, 100 U RNAsin (Promega), 50 U T7 Pol (Genofit) in 40 mM Tris pH 8, 8mM MgCl2, 2 mM spermidine, 50 mM NaCl, in 100 ul at 37° C. Capping was performed by omitting GTP and adding CAP (m^7 G (5′) ppp (5′) G) (Pharmacia) for the 15 first minutes of the reaction.\nAfter at least 2 h of incubation at 0° C., free was separated from bound by filtration through millipore HAWP 02500 filters using 10 ml of ice cold buffer. For testosterone, retinol, retinoic acid 10 ul of lysate were added to 45 lambda of 20 mM Tris pH 7.3, 1 mM EDTA, 50 mM NaCl, 2 mM beta-mercaptoethanol and […], […] or […] (81 ci/mmol; 60 Ci/mmol; 46 Ci/mmol; Amersham). After an overnight incubation at 0° C. free was separated from bound by Dextran coated charcoal (0.5% Norit A−0.05% T70) and centrifugation. All experiments were performed in duplicates and parallel experiments were performed with 100 fold excess corresponding cold hormone."}, "[2]": {"test_system": "RAR β mRNAs in PLC/PRF/5 cells", "type": "cell-based, human", "method": "(§1) More particularly, semi-confluent cells were grown for 6 hr in charcoal stripped medium and retinoic acid was then added to the medium at various concentrations (10^−10 M to 10^−6 M) for 4 hr. Control cells were treated with ethanol (E). Northern-blotting was performed as described in connection with FIG. 9, except that 30 μg of total RNA was used.\n(§2) Exposure time was 12 hr for the β probe (FIG. 10B, lower panel) and four days for the α probe (FIG. 10B, upper panel).\n(§3) Northern-blotting was carried on using 30 ug of total RNA. […] Exposure times were the same as for the experiments in FIG. 10.\n(§4) Human tissue samples were obtained from early autopsies and kept at −80° C. prior to extraction. The HEPG 2 and PLC/PRF/5 hepatoma cell-lines were grown in Dulbecco's modified Eagle's medium with 10% fetal calf serum, glutamine, and antibiotics, in 5% CO2.\n(§5) The RNA was prepared by the hot phenol procedure (Maniatis et al., 1982). Poly(A)^+ mRNA was prepared by oligo(dT)-cellulose ilchromatography. For Northern-blot analysis, total RNA (30 μg) or poly(A)^+ mRNA (5 μg) was denatured by glyoxal and fractionated on a 1.2% agarose gel (Maniatis et al., 1982). The nucleic acid was transferred to nylon membranes (Amersham) by blotting and attached by UV exposure plus baking.\n(§6) The two cDNA inserts were subcloned into M13 and used to generate high specific activity (greater than 10^9 c.p.m./μg) single-stranded probes by elongation of a sequencing primer with ^32P labelled dTTP (3000 Ci/mmol) and unlabelled nucleotides by Klenow polymerase. The resulting double-stranded DNA was digested using a unique site in the vector, fractioned on a urea/acrylamide sequencing gel, and the labelled single-stranded insert electroeluted. These probes (5×10^6 cpm/ml) were hybridized to the filters in 7% (w/v) sodium dodecyl sulfate (SDS), 0.5 M NaPO4 pH 6.5, 1 mM ethylenediaminetetraacetate (EDTA), and 1 mg/ml bovine serum albumin (BSA) at 68° C. overnight. The filters were washed in 1% SDS, 50 mM NaCl, 1 mM EDTA at 68° C. for 10 min and autoradiographed at −70° C. using Kodak XAR films and intensifying screens. A mouse β actin probe was used to rehybridize the filters and check that all lanes contained equal amounts of RNA.\nThe relative intensity of hybridization signals in Northern-blotting and run-on experiments was estimated using a Hoefer scanning densitometer and the appropriate computer program."}, "[3]": {"test_system": "RAR β mRNAs in HEPG2 hepatoma cell-line", "experiment": "Northern blot of RAR β mRNAs in HEPG2 cells", "type": "cell-based, human", "method": "as §4, §5\nas §6, with “The filters were washed in 1% SDS, 50 mM NaCl, 1 mM EDTA at 68° C. for 10 min and autoradiographed at −70° C. using Kodak XAR films and intensifying screens. A mouse β actin probe was used to rehybridize the filters and check that all lanes contained equal amounts of RNA.” left out"}, "[4]": {"test_system": "RAR β", "conditions": "cited from earlier work"}, "[5]": {"test_system": "RAR α mRNAs in PLC/PRF/5 cells", "experiment": "Northern blot of RAR α mRNAs in PLC/PRF/5 cells", "type": "cell-based, human", "conditions": "RA up to 10^−6 M", "method": "as §1, §2, §3, §4\nas §5, with “baking. […]” for “baking.”"}, "[6]": {"test_system": "transglutaminase expression in HL60 cells", "conditions": "read-out: ED 50 of RA-dependent transglutaminase expression; cited from earlier work"}, "[7]": {"target": "T2, hap-ER chimaeric receptor (Homo sapiens, UniProt P10826, A104S/D127T/F149Y/F89A/G110A/H125P/I121D/K118G/K128N/K94Y/M120N/N119H/N129Q/N133D/N138K/Q146R/Q92N/R113K/R126A/R139S/S103W/S95A/T123M/T136R/V131T/V135N/Y142A)", "T2 construct": "expressed in transfected cells", "T2 sequence (P10826 1-448 isoform P10826-2 F82A/Q85N/K87Y/S88A/S96W/A97S/G103A/R106K/K111G/N112H/M113N/I114D/T116M/H118P/R119A/D120T/K121N/N122Q/V124T/N126D/V128N/T129R/N131K/R132S/Y135A/Q139R/F142Y)": "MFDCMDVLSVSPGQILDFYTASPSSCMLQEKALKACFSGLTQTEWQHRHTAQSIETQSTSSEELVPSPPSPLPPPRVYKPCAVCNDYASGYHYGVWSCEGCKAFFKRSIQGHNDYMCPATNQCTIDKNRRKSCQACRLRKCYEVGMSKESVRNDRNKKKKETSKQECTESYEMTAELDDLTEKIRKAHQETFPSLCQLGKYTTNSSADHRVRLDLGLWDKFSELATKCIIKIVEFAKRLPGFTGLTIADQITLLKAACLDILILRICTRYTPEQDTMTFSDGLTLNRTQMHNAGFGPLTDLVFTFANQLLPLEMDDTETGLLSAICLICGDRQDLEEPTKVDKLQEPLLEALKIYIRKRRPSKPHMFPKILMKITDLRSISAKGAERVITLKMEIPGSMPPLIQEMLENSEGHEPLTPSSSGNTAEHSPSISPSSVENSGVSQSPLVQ", "experiment": "hap-ER chimaera trans-activation of oestrogen-responsive reporter gene (vit-tk-CAT)", "type": "cell-based", "conditions": "RA at physiological concentrations", "method": "To test the possibility that the hap protein might also be a retinoid receptor, a chimaeric receptor was created by replacing the putative DNA binding domain of hap with that of the human oestrogen receptor (ER). The resulting hap-ER chimaera was then tested for its ability to trans-activate an oestrogen-responsive reporter gene (vit-tk-CAT) in the presence of possible receptor ligands. […] See Nature, 332:850-853 (1988)."}, "[8]": {"test_system": "nuclear extracts from HeLa cells", "experiment": "T3 binding positive control with HeLa nuclear extracts", "excerpt": "The results were-negative as well when the experiment was repeated with (3H)-retinol, -retinoic acid, and -testosterone, which represent three putative ligands for hap whose receptors have not yet been cloned. Although it cannot excluded that hap may encode a hormone independent transcriptional activator, it is more likely that hap product, i.e. the hap protein, is α receptor for a presently unidentified hormone."}}, "note": "Numbered stars: 1 amine (or outer) side, 2 acyl side, 3 side chain; on linkers, the order of the positions; unused ones are H or OH. Bridge positions count the residues as written; N and C are the ends. Square brackets hold non-standard residues; d marks the D form. Peptide text beside a SMILES is read from it. I, II: the chains in the order shown. Actinocin(9to1) = Cc1c2oc3c(C)ccc(C(=O)[*:1])c3nc-2c(C(=O)[*:2])c(N)c1=O; NMeV = CN[C@H](C(=O)O)C(C)C; Sar = CNCC(=O)O", "data": [{"smiles": "N[C@@H](Cc1cc(I)c(Oc2cc(I)c(O)c(I)c2)c(I)c1)C(=O)O", "note": "[T4, thyroxine]", "values": [{"measurement": "specific binding of (125I)-labelled thyroid hormone to in vitro translated hap polypeptide", "setting": "[1]", "value": "No specific fixation"}]}, {"smiles": "Cc1c2oc3c(C)ccc(C(=O)N[C@@H]4C(=O)N[C@H](C(C)C)C(=O)N5CCC[C@H]5C(=O)N(C)CC(=O)N(C)[C@@H](C(C)C)C(=O)O[C@@H]4C)c3nc-2c(C(=O)N[C@@H]2C(=O)N[C@H](C(C)C)C(=O)N3CCC[C@H]3C(=O)N(C)CC(=O)N(C)[C@@H](C(C)C)C(=O)O[C@@H]2C)c(N)c1=O", "note": "[actinomycin D] (I: T[dV]P[Sar][NMeV] / II: T[dV]P[Sar][NMeV]; ester I:1-I:C, II:1-II:C; linker I:N-II:N via Actinocin(9to1))", "values": [{"measurement": "effect of inhibitor on the RA-induced increase in the levels of RAR β transcripts", "setting": "[2]; RA 10^−6M, CH 10 μg/ml or AC 5 μg/ml, 4 hr", "value": "abolished"}]}, {"smiles": "C[C@]12CC[C@H]3[C@@H](CCC4=CC(=O)CC[C@@]43C)[C@@H]1CC[C@@H]2O", "note": "[testosterone]", "values": [{"measurement": "binding of (3H)-labelled ligand to in vitro translated hap polypeptide", "setting": "[1]", "value": "negative"}]}, {"smiles": "CC1=C(/C=C/C(C)=C/C=C/C(C)=C/CO)C(C)(C)CCC1", "note": "[retinol]", "values": [{"measurement": "binding of (3H)-labelled ligand to in vitro translated hap polypeptide", "setting": "[1]", "value": "negative"}]}, {"smiles": "N[C@@H](Cc1ccc(Oc2cc(I)c(O)c(I)c2)c(I)c1)C(=O)O", "note": "[reverse T3, 3,3′, 5′-triiodo-thyronine]", "values": [{"measurement": "specific binding of (125I)-labelled thyroid hormone to in vitro translated hap polypeptide", "setting": "[1]", "value": "No specific fixation"}]}, {"smiles": "CC1=C(/C=C/C(C)=C/C=C/C(C)=C/C(=O)O)C(C)(C)CCC1", "note": "[RA, All-trans-retinoic acid]", "values": [{"measurement": "RA-induced stimulation of the levels of RAR β mRNAs", "setting": "[3]", "value": 50, "unit": "fold"}, {"measurement": "RA concentration for activation of transcription by RAR-β lower than for RAR α", "setting": "[4]; RAR-β versus RAR α", "value": "[…]"}, {"measurement": "EC50", "setting": "[4]; read-out: ED 50 of RA-dependent gene transactivation, RAR β", "value": "[…]"}, {"measurement": "effect on the level of RAR α mRNAs", "setting": "[5]", "value": "no effect"}, {"measurement": "EC50", "setting": "[6]", "value": 0.05, "unit": "µM"}, {"measurement": "latency of induction of RAR β mRNAs", "setting": "[2]; RA 10^−6 M", "value": "one"}, {"measurement": "time after which induction of RAR β mRNAs is complete", "setting": "[2]; RA 10^−6 M", "value": "four"}, {"measurement": "magnitude of the RA-induced upregulation of RAR β mRNAs", "setting": "[2]; densitometry of Northern blot, 4 hr", "value": 10, "unit": "fold"}, {"measurement": "RA concentration at which stimulatory effect on RAR β mRNAs is already evident", "setting": "[2]; dose-response 10^−10 M to 10^−6 M, 4 hr", "value": "[…]"}, {"measurement": "inducing the expression of the reporter gene by the hap-ER chimaeric receptor", "setting": "[7]", "value": "effective"}]}, {"smiles": "N[C@@H](Cc1cc(I)c(Oc2ccc(O)c(I)c2)c(I)c1)C(=O)O", "note": "[T3, triiodothyronine]", "values": [{"measurement": "binding to nuclear extracts from HeLa cells", "setting": "[8]", "value": "detected"}]}]}
